Measured values as given in US10906873B2, “Substituted cyclic amides as herbicides” (FMC Corporation, priority 2015, dated 2021).

tested on: kochia (Kochia scoparia); assay: Test A preemergence, kochia; type: in vivo; details: 125 g ai/ha, 0 to 100 scale
Summary of the method: (§1)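 Visual injury ratings, 0 = no effect to 100 = complete control, made versus untreated controls after about 10 d in greenhouse. Chemicals formulated in solvent mixture containing surfactant were sprayed on loam-sand soil after seeding (preemergence) or onto plants at one- to two-leaf stage, 2-10 cm (postemergence).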

Row | Compound | Plant response rating, Kochia
1 | Cc1cccc(C#CC2CNC(=O)C2C(=O)Nc2cccc(F)c2F)c1 (stereo not drawn) [Compound 22] | 0

same assay, conditions: 500 g ai/ha, 0 to 100 scale

Row | Compound | Plant response rating, Kochia
2 | Cc1cccc(C#CC2CNC(=O)C2C(=O)Nc2cccc(F)c2F)c1 (stereo not drawn) [Compound 22] | 20

tested on: barnyardgrass (Echinochloa crus-galli); assay: Test B flooded paddy test, barnyardgrass; type: in vivo; details: Flood, 250 g ai/ha; scale of 0 to 100 where 0 is no effect and 100 is complete control; 13 to 15 d
Summary of the method: (§2)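 Ratings use a 0-100 visual scale, where 100 is complete control, and compare treated plants with controls after 13 to 15 d of greenhouse growth. Compound went straight into paddy water kept 3 cm over the soil surface, applied to seedlings at the 2-leaf stage.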

Row | Compound | Plant response rating, Barnyardgrass
3 | Cc1cccc(C#CC2CNC(=O)C2C(=O)Nc2cccc(F)c2F)c1 (stereo not drawn) [Compound 22] | 0

tested on: ragweed (common ragweed, Ambrosia elatior); assay: Test A preemergence, ragweed; type: in vivo; details: 125 g ai/ha, 0 to 100 scale
Summary of the method: as §1

Row | Compound | Plant response rating, Ragweed
4 | Cc1cccc(C#CC2CNC(=O)C2C(=O)Nc2cccc(F)c2F)c1 (stereo not drawn) [Compound 22] | 0

same assay, conditions: 500 g ai/ha, 0 to 100 scale

Row | Compound | Plant response rating, Ragweed
5 | Cc1cccc(C#CC2CNC(=O)C2C(=O)Nc2cccc(F)c2F)c1 (stereo not drawn) [Compound 22] | 0

tested on: ryegrass, It. (Italian ryegrass, Lolium multiflorum); assay: Test A preemergence, ryegrass, It.; type: in vivo; details: 125 g ai/ha, 0 to 100 scale
Summary of the method: as §1

Row | Compound | Plant response rating, Ryegrass, It.
6 | Cc1cccc(C#CC2CNC(=O)C2C(=O)Nc2cccc(F)c2F)c1 (stereo not drawn) [Compound 22] | 0

same assay, conditions: 500 g ai/ha, 0 to 100 scale

Row | Compound | Plant response rating, Ryegrass, It.
7 | Cc1cccc(C#CC2CNC(=O)C2C(=O)Nc2cccc(F)c2F)c1 (stereo not drawn) [Compound 22] | 0

tested on: ragweed (common ragweed, Ambrosia elatior); assay: Test A postemergence, ragweed; type: in vivo; details: 125 g ai/ha, 0 to 100 scale
Summary of the method: as §1

Row | Compound | Plant response rating, Ragweed
8 | Cc1cccc(C#CC2CNC(=O)C2C(=O)Nc2cccc(F)c2F)c1 (stereo not drawn) [Compound 22] | 0

same assay, conditions: 500 g ai/ha, 0 to 100 scale

Row | Compound | Plant response rating, Ragweed
9 | Cc1cccc(C#CC2CNC(=O)C2C(=O)Nc2cccc(F)c2F)c1 (stereo not drawn) [Compound 22] | 0

tested on: ryegrass, It. (Italian ryegrass, Lolium multiflorum); assay: Test A postemergence, ryegrass, It.; type: in vivo; details: 125 g ai/ha, 0 to 100 scale
Summary of the method: as §1

Row | Compound | Plant response rating, Ryegrass, It.
10 | Cc1cccc(C#CC2CNC(=O)C2C(=O)Nc2cccc(F)c2F)c1 (stereo not drawn) [Compound 22] | 0

same assay, conditions: 500 g ai/ha, 0 to 100 scale

Row | Compound | Plant response rating, Ryegrass, It.
11 | Cc1cccc(C#CC2CNC(=O)C2C(=O)Nc2cccc(F)c2F)c1 (stereo not drawn) [Compound 22] | 0

tested on: blackgrass (Alopecurus myosuroides); assay: Test A postemergence, blackgrass; type: in vivo; details: 125 g ai/ha, 0 to 100 scale
Summary of the method: as §1

Row | Compound | Plant response rating, Blackgrass
12 | Cc1cccc(C#CC2CNC(=O)C2C(=O)Nc2cccc(F)c2F)c1 (stereo not drawn) [Compound 22] | 0

same assay, conditions: 500 g ai/ha, 0 to 100 scale

Row | Compound | Plant response rating, Blackgrass
13 | Cc1cccc(C#CC2CNC(=O)C2C(=O)Nc2cccc(F)c2F)c1 (stereo not drawn) [Compound 22] | 0

tested on: foxtail, giant (giant foxtail, Setaria faberii); assay: Test A preemergence, foxtail, giant; type: in vivo; details: 125 g ai/ha, 0 to 100 scale
Summary of the method: as §1

Row | Compound | Plant response rating, Foxtail, Giant
14 | Cc1cccc(C#CC2CNC(=O)C2C(=O)Nc2cccc(F)c2F)c1 (stereo not drawn) [Compound 22] | 50

same assay, conditions: 500 g ai/ha, 0 to 100 scale

Row | Compound | Plant response rating, Foxtail, Giant
15 | Cc1cccc(C#CC2CNC(=O)C2C(=O)Nc2cccc(F)c2F)c1 (stereo not drawn) [Compound 22] | 70

tested on: kochia (Kochia scoparia); assay: Test A postemergence, kochia; type: in vivo; details: 125 g ai/ha, 0 to 100 scale
Summary of the method: as §1

Row | Compound | Plant response rating, Kochia
16 | Cc1cccc(C#CC2CNC(=O)C2C(=O)Nc2cccc(F)c2F)c1 (stereo not drawn) [Compound 22] | 0

same assay, conditions: 500 g ai/ha, 0 to 100 scale

Row | Compound | Plant response rating, Kochia
17 | Cc1cccc(C#CC2CNC(=O)C2C(=O)Nc2cccc(F)c2F)c1 (stereo not drawn) [Compound 22] | 0

tested on: ducksalad (Heteranthera limosa); assay: Test B flooded paddy test, ducksalad; type: in vivo; details: Flood, 250 g ai/ha; scale of 0 to 100 where 0 is no effect and 100 is complete control; 13 to 15 d
Summary of the method: as §2

Row | Compound | Plant response rating, Ducksalad
18 | Cc1cccc(C#CC2CNC(=O)C2C(=O)Nc2cccc(F)c2F)c1 (stereo not drawn) [Compound 22] | 70

tested on: sedge, umbrella (small-flower umbrella sedge, Cyperus difformis); assay: Test B flooded paddy test, sedge, umbrella; type: in vivo; details: Flood, 250 g ai/ha; scale of 0 to 100 where 0 is no effect and 100 is complete control; 13 to 15 d
Summary of the method: as §2

Row | Compound | Plant response rating, Sedge, Umbrella
19 | Cc1cccc(C#CC2CNC(=O)C2C(=O)Nc2cccc(F)c2F)c1 (stereo not drawn) [Compound 22] | 0

tested on: corn (Zea mays); assay: Test A postemergence, corn; type: in vivo; details: 125 g ai/ha, 0 to 100 scale
Summary of the method: as §1

Row | Compound | Plant response rating, Corn
20 | Cc1cccc(C#CC2CNC(=O)C2C(=O)Nc2cccc(F)c2F)c1 (stereo not drawn) [Compound 22] | 0

same assay, conditions: 500 g ai/ha, 0 to 100 scale

Row | Compound | Plant response rating, Corn
21 | Cc1cccc(C#CC2CNC(=O)C2C(=O)Nc2cccc(F)c2F)c1 (stereo not drawn) [Compound 22] | 20

tested on: pigweed (Amaranthus retroflexus); assay: Test A postemergence, pigweed; type: in vivo; details: 125 g ai/ha, 0 to 100 scale
Summary of the method: as §1

Row | Compound | Plant response rating, Pigweed
22 | Cc1cccc(C#CC2CNC(=O)C2C(=O)Nc2cccc(F)c2F)c1 (stereo not drawn) [Compound 22] | 0

same assay, conditions: 500 g ai/ha, 0 to 100 scale

Row | Compound | Plant response rating, Pigweed
23 | Cc1cccc(C#CC2CNC(=O)C2C(=O)Nc2cccc(F)c2F)c1 (stereo not drawn) [Compound 22] | 0

tested on: rice (Oryza sativa); assay: Test B flooded paddy test, rice; type: in vivo; details: Flood, 250 g ai/ha; scale of 0 to 100 where 0 is no effect and 100 is complete control; 13 to 15 d
Summary of the method: as §2

Row | Compound | Plant response rating, Rice
24 | Cc1cccc(C#CC2CNC(=O)C2C(=O)Nc2cccc(F)c2F)c1 (stereo not drawn) [Compound 22] | 0

tested on: galium (catchweed bedstraw, Galium aparine); assay: Test A postemergence, galium; type: in vivo; details: 125 g ai/ha, 0 to 100 scale
Summary of the method: as §1

Row | Compound | Plant response rating, Galium
25 | Cc1cccc(C#CC2CNC(=O)C2C(=O)Nc2cccc(F)c2F)c1 (stereo not drawn) [Compound 22] | 0

same assay, conditions: 500 g ai/ha, 0 to 100 scale

Row | Compound | Plant response rating, Galium
26 | Cc1cccc(C#CC2CNC(=O)C2C(=O)Nc2cccc(F)c2F)c1 (stereo not drawn) [Compound 22] | 20

tested on: barnyardgrass (Echinochloa crus-galli); assay: Test A postemergence, barnyardgrass; type: in vivo; details: 125 g ai/ha, 0 to 100 scale
Summary of the method: as §1

Row | Compound | Plant response rating, Barnyardgrass
27 | Cc1cccc(C#CC2CNC(=O)C2C(=O)Nc2cccc(F)c2F)c1 (stereo not drawn) [Compound 22] | 40

same assay, conditions: 500 g ai/ha, 0 to 100 scale

Row | Compound | Plant response rating, Barnyardgrass
28 | Cc1cccc(C#CC2CNC(=O)C2C(=O)Nc2cccc(F)c2F)c1 (stereo not drawn) [Compound 22] | 70

tested on: foxtail, giant (giant foxtail, Setaria faberii); assay: Test A postemergence, foxtail, giant; type: in vivo; details: 125 g ai/ha, 0 to 100 scale
Summary of the method: as §1

Row | Compound | Plant response rating, Foxtail, Giant
29 | Cc1cccc(C#CC2CNC(=O)C2C(=O)Nc2cccc(F)c2F)c1 (stereo not drawn) [Compound 22] | 20

same assay, conditions: 500 g ai/ha, 0 to 100 scale

Row | Compound | Plant response rating, Foxtail, Giant
30 | Cc1cccc(C#CC2CNC(=O)C2C(=O)Nc2cccc(F)c2F)c1 (stereo not drawn) [Compound 22] | 50

tested on: pigweed (Amaranthus retroflexus); assay: Test A preemergence, pigweed; type: in vivo; details: 125 g ai/ha, 0 to 100 scale
Summary of the method: as §1

Row | Compound | Plant response rating, Pigweed
31 | Cc1cccc(C#CC2CNC(=O)C2C(=O)Nc2cccc(F)c2F)c1 (stereo not drawn) [Compound 22] | 0

same assay, conditions: 500 g ai/ha, 0 to 100 scale

Row | Compound | Plant response rating, Pigweed
32 | Cc1cccc(C#CC2CNC(=O)C2C(=O)Nc2cccc(F)c2F)c1 (stereo not drawn) [Compound 22] | 0

tested on: wheat (Triticum aestivum); assay: Test A postemergence, wheat; type: in vivo; details: 125 g ai/ha, 0 to 100 scale
Summary of the method: as §1

Row | Compound | Plant response rating, Wheat
33 | Cc1cccc(C#CC2CNC(=O)C2C(=O)Nc2cccc(F)c2F)c1 (stereo not drawn) [Compound 22] | 0

same assay, conditions: 500 g ai/ha, 0 to 100 scale

Row | Compound | Plant response rating, Wheat
34 | Cc1cccc(C#CC2CNC(=O)C2C(=O)Nc2cccc(F)c2F)c1 (stereo not drawn) [Compound 22] | 0

tested on: barnyardgrass (Echinochloa crus-galli); assay: Test A preemergence, barnyardgrass; type: in vivo; details: 125 g ai/ha, 0 to 100 scale
Summary of the method: as §1

Row | Compound | Plant response rating, Barnyardgrass
35 | Cc1cccc(C#CC2CNC(=O)C2C(=O)Nc2cccc(F)c2F)c1 (stereo not drawn) [Compound 22] | 60

same assay, conditions: 500 g ai/ha, 0 to 100 scale

Row | Compound | Plant response rating, Barnyardgrass
36 | Cc1cccc(C#CC2CNC(=O)C2C(=O)Nc2cccc(F)c2F)c1 (stereo not drawn) [Compound 22] | 80
